From the supplement of paper PMC10307832

What was measured:
Assay in all cases: relative viability (nuclei count vs DMSO), 5 days (fraction); higher = more cells survive
[1] = compound: COc1cc2c(Oc3ccc4[nH]c(C)cc4c3F)ncnc2cc1OCCCN1CCCC1 [Cediranib] + C[C@@H](Oc1cc(-c2cnn(C3CCNCC3)c2)cnc1N)c1c(Cl)ccc(F)c1Cl [Crizotinib] (partner 1 µM)
Procedure, shortened: (§1)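 Relative viability equals treated-well nuclei counts divided by vehicle-well nuclei counts. Counts came from 4× images of lung cancer cell lines grown in 1536-well plates for 5 days after pin-tool dosing on the day after seeding. Dosing used one drug alone or a fixed anchor-drug dose plus five library-drug doses (not always all listed) in √10 steps, and values are medians of duplicate plates.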

[2] = compound: Nc1ncn([C@H]2C[C@H](O)[C@@H](CO)O2)c(=O)n1 [Decitabine] + N=C(N)NC(=N)NCCc1ccccc1 [Phenformin] (partner 250 µM)
Procedure, shortened: as §1

[3] = compound: O=C(C[C@H]1NCCC[C@@H]1O)Cn1cnc2cc(Br)c(Cl)cc2c1=O (racemic) [Halofuginone] + COc1cc2c(Oc3ccc(NC(=O)C4(C(=O)Nc5ccc(F)cc5)CC4)cc3F)ccnc2cc1OCCCN1CCOCC1 [Foretinib] (partner 0.25 µM)
Procedure, shortened: as §1

[4] = compound: O=C(C[C@H]1NCCC[C@@H]1O)Cn1cnc2cc(Br)c(Cl)cc2c1=O (racemic) [Halofuginone] + Cc1nc(NC(=O)N2CCC[C@H]2C(N)=O)sc1-c1ccnc(C(C)(C)C(F)(F)F)c1 [Alpelisib] (partner 2 µM)
Procedure, shortened: as §1

## PC-14
[1]; first compound 0.04 µM
  relative viability: 0.895
[1]; first compound 0.1265 µM
  relative viability: 0.909
[1]; first compound 0.4 µM
  relative viability: 0.82
[1]; first compound 1.265 µM
  relative viability: 0.918
[1]; first compound 4 µM
  relative viability: 0.855
[2]; first compound 0.04 µM
  relative viability: 0.114
[2]; first compound 0.1265 µM
  relative viability: 0.339
[2]; first compound 0.4 µM
  relative viability: 0.128
[2]; first compound 1.265 µM
  relative viability: 0.126
[2]; first compound 4 µM
  relative viability: 0.163
[3]; first compound 0.001 µM
  relative viability: 0.937
[3]; first compound 0.003162 µM
  relative viability: 0.977
[3]; first compound 0.01 µM
  relative viability: 0.859
[3]; first compound 0.03162 µM
  relative viability: 0.903
[3]; first compound 0.1 µM
  relative viability: 0.8
[4]; first compound 0.001 µM
  relative viability: 0.985
[4]; first compound 0.003162 µM
  relative viability: 1.01
[4]; first compound 0.01 µM
  relative viability: 0.878
[4]; first compound 0.03162 µM
  relative viability: 0.724
[4]; first compound 0.1 µM
  relative viability: 0.428

## RERF-LC-KJ
[1]; first compound 0.04 µM
  relative viability: 0.875
[1]; first compound 0.1265 µM
  relative viability: 0.893
[1]; first compound 0.4 µM
  relative viability: 0.799
[1]; first compound 1.265 µM
  relative viability: 0.782
[1]; first compound 4 µM
  relative viability: 0.752
[2]; first compound 0.04 µM
  relative viability: 0.459
[2]; first compound 0.1265 µM
  relative viability: 0.386
[2]; first compound 1.265 µM
  relative viability: 0.402
[2]; first compound 4 µM
  relative viability: 0.333
[3]; first compound 0.001 µM
  relative viability: 0.902
[3]; first compound 0.003162 µM
  relative viability: 1.01
[3]; first compound 0.01 µM
  relative viability: 0.967
[3]; first compound 0.03162 µM
  relative viability: 0.853
[3]; first compound 0.1 µM
  relative viability: 0.815
[4]; first compound 0.001 µM
  relative viability: 0.849
[4]; first compound 0.003162 µM
  relative viability: 1.09
[4]; first compound 0.01 µM
  relative viability: 0.735
[4]; first compound 0.03162 µM
  relative viability: 0.908
[4]; first compound 0.1 µM
  relative viability: 0.831

## SK-LU-1
[1]; first compound 0.04 µM
  relative viability: 0.973
[1]; first compound 0.1265 µM
  relative viability: 0.853
[1]; first compound 0.4 µM
  relative viability: 0.781
[1]; first compound 1.265 µM
  relative viability: 0.897
[1]; first compound 4 µM
  relative viability: 0.983
[2]; first compound 0.04 µM
  relative viability: 0.42
[2]; first compound 0.1265 µM
  relative viability: 0.448
[2]; first compound 0.4 µM
  relative viability: 0.278
[2]; first compound 1.265 µM
  relative viability: 0.344
[2]; first compound 4 µM
  relative viability: 0.297
[3]; first compound 0.001 µM
  relative viability: 0.921
[3]; first compound 0.003162 µM
  relative viability: 0.8
[3]; first compound 0.01 µM
  relative viability: 0.753
[3]; first compound 0.03162 µM
  relative viability: 0.759
[3]; first compound 0.1 µM
  relative viability: 0.406
[4]; first compound 0.001 µM
  relative viability: 1.14
[4]; first compound 0.003162 µM
  relative viability: 1.13
[4]; first compound 0.01 µM
  relative viability: 1.02
[4]; first compound 0.03162 µM
  relative viability: 0.888
[4]; first compound 0.1 µM
  relative viability: 0.247

## SK-MES-1
[1]; first compound 0.04 µM
  relative viability: 1.06
[1]; first compound 0.1265 µM
  relative viability: 1.05
[1]; first compound 0.4 µM
  relative viability: 0.915
[1]; first compound 1.265 µM
  relative viability: 0.963
[1]; first compound 4 µM
  relative viability: 1.06
[2]; first compound 0.04 µM
  relative viability: 0.535
[2]; first compound 0.1265 µM
  relative viability: 0.553
[2]; first compound 0.4 µM
  relative viability: 0.346
[2]; first compound 1.265 µM
  relative viability: 0.271
[2]; first compound 4 µM
  relative viability: 0.291
[3]; first compound 0.001 µM
  relative viability: 1.06
[3]; first compound 0.003162 µM
  relative viability: 1.06
[3]; first compound 0.01 µM
  relative viability: 0.911
[3]; first compound 0.03162 µM
  relative viability: 0.828
[3]; first compound 0.1 µM
  relative viability: 0.611
[4]; first compound 0.001 µM
  relative viability: 0.952
[4]; first compound 0.003162 µM
  relative viability: 1.32
[4]; first compound 0.01 µM
  relative viability: 0.853
[4]; first compound 0.03162 µM
  relative viability: 0.832
[4]; first compound 0.1 µM
  relative viability: 0.522

## SW 1573
[1]; first compound 0.04 µM
  relative viability: 0.833
[1]; first compound 0.1265 µM
  relative viability: 0.764
[1]; first compound 0.4 µM
  relative viability: 0.726
[1]; first compound 1.265 µM
  relative viability: 0.717
[1]; first compound 4 µM
  relative viability: 0.889
[2]; first compound 0.04 µM
  relative viability: 0.32
[2]; first compound 0.1265 µM
  relative viability: 0.327
[2]; first compound 0.4 µM
  relative viability: 0.323
[2]; first compound 1.265 µM
  relative viability: 0.287
[2]; first compound 4 µM
  relative viability: 0.168
[3]; first compound 0.001 µM
  relative viability: 0.959
[3]; first compound 0.003162 µM
  relative viability: 1.05
[3]; first compound 0.01 µM
  relative viability: 0.945
[3]; first compound 0.03162 µM
  relative viability: 0.943
[3]; first compound 0.1 µM
  relative viability: 0.762
[4]; first compound 0.001 µM
  relative viability: 0.735
[4]; first compound 0.003162 µM
  relative viability: 0.748
[4]; first compound 0.01 µM
  relative viability: 0.717
[4]; first compound 0.03162 µM
  relative viability: 0.645
[4]; first compound 0.1 µM
  relative viability: 0.618
